Experimental data reported in patent US5686422A, “Synthetic inhibitors of mammalian collagenase” (Research Corporation Technologies, Inc., priority 1995, dated 1997).
Like-named read-outs stand apart in the source and are kept apart here.

Experiments:
PA elastase = target: T1, PA elastase (Pseudomonas aeruginosa, UniProt P14756); assay: biochemical
T1 construct: made in house; host or cells: native secreted enzyme from a virulent Pseudomonas aeruginosa strain grown on tryptone glucose extract agar
Description: Pseudomonas aeruginosa proteases were obtained by overnight incubation of virulent strain of Pseudomonas aeruginosa (PA) on tryptone glucose extract agar.
The PA elastase was tested in accordance with the procedures analogous to those conducted on purified collagenase in Example 5.
Example 7 was repeated using three corneal ulceration treatments of the prior art: Tetracycline, minocycline and doxycycline.

pig synovial collagenase = target: T2, pig synovial collagenase (Sus scrofa, UniProt P21692); assay: Collagenase assay: degradation of type I collagen (SDS-PAGE/densitometry or spectrophotometric); assay type: biochemical
T2 construct: pig synovial collagenase (0.04 μg protein); from tissue; host or cells: pig synovium (only from the enzyme's name; preparation not described)
T2 sequence (P21692 100-469): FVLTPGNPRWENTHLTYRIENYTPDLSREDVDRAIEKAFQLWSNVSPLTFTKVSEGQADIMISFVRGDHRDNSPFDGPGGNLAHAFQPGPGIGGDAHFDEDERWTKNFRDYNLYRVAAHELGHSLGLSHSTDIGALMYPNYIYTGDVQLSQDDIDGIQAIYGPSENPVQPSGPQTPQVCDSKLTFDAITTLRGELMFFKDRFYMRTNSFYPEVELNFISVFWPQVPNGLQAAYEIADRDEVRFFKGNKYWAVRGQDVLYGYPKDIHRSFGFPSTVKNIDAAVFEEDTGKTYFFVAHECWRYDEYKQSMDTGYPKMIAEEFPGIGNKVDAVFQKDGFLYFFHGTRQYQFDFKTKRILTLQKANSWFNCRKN
Description: Collagenase activity was determined after electrophoretic separation of degraded from undegraded type I collagen by polyacrylamide gel electrophoresis and densitometry as follows.
Acid-soluble calf skin collagen (0.25 mg/ml, approximately […]) was incubated at 35° C. for 1 hr with pig synovial collagenase (0.04 μg protein) in 0.05M tris-HCL, 0.2M NaCl, 0.25M glucose, 5 mM CaCl2, 10% dimethyl sulfoxide, pH 7.6 in a total reaction volume of 20 μL. Inhibitors were dissolved in dimethyl sulfoxide and the sulfhydryl titer determined in stock solutions immediately prior to use by the colorimetric procedure of Ellman [Ellman, G. L., Arch. Biochem. Biophys. 82: 70-77 (1959)]. At the end of the reaction period, the reactions were stopped by placing on ice and 20 μL sample dilution buffer was added [Laemmli, U. K., Nature (London) 227: 680-685 (1970)]. The samples were then placed in a boiling water bath for 2-5 minutes after which collagen degradation products were separated from undegraded collagen by sodium dodecyl sulfate-polyacrylamide electrophoresis according to the procedure of Laemmli [1970]. The electrophoretograms were fixed in isopropanol/acetic acid/water (100:40:300) and stained with 1% Coomassie Blue R-250. The percentage of collagen alpha chains degraded was estimated by scanning densitometry and integration of peak areas [Welgus et al., J. Biol. Chem. 256: 9511-9515 (1981)].
A spectrophotometric method was also utilized in some cases to determine collagenase activity [Lindy, S. et al., European J. Biochem. 156: 1-4 (1986)]. The conditions were the same as given above except that the reaction volume was 200 μL, the temperature was 37° C. and the enzyme concentration was 1.2 μg protein/ml. Stock solutions of inhibitors were prepared in 1 mM acetic acid in ethanol and the sulfhydryl titer determined colorimetrically by the method of Ellman […]. The reaction progress was monitored for 6-10 minutes by following the increase in absorbance at 227 nm that accompanies denaturation of the collagen fragments. Initial rates of collagen degradation were determined from the linear portion of the progress curves.

[1] = target: T3, Collagenase, purified from sodium hydroxide burned rabbit corneal tissue (Oryctolagus cuniculus, UniProt P13943); assay: Qualitative SDS-PAGE assay of collagen degradation by corneal collagenase; assay type: biochemical
T3 sequence (P13943 99-468): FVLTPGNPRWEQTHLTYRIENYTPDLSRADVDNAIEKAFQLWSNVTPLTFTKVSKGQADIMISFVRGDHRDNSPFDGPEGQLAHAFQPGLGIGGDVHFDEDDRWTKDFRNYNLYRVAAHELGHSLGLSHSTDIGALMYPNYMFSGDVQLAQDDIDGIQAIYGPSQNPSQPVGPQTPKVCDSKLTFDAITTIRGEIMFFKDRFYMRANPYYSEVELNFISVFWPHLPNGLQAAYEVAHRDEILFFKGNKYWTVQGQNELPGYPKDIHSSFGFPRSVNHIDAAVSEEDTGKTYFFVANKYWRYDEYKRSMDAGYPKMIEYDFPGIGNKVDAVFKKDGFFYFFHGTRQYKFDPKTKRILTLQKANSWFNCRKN
Description: Collagenase, purified from sodium hydroxide burned rabbit corneal tissue, was placed in a reaction mixture containing Type I collagen (0.4 mg/ml), 0.005M Tris-HCl, 0.2M NaCl, 0.25M glucose, pH 7.7. Reactions were initiated by adding the enzyme to the reaction mixture; inhibitory potency was estimated by running separate reaction mixtures in which the peptide HSCH2 CH[CH2 CH(CH3)2 ]--CO-Phe-Ala-NH2, made in accordance with Example 2, was added in varying concentrations to the mixture and incubated for 3 hours at 30° C. Other compounds were assayed for inhibitory potency in a similar manner. Reaction mixtures were quenched by placing them on ice and then adding one volume of sample dilution buffer followed by boiling the mixtures in a water bath for 5 minutes. Collagen degradation products were resolved from undegraded collagen by sodium dodecylsulfate-polyacylamide gel electrophoresis (SDS-PAGE) followed by staining with Coomassie Blue R-250. The SDS-PAGE assay was used to qualitatively evaluate the inhibitory capacity of the compounds tested. An estimate of inhibitory potency was then noted by visualizing the concentration range which produced 50% inhibition of collagen degradation.
The results of this qualitative assay are expressed as an IC50 range (Table II). For example, doxycyline's IC50 is 0.2 to 1.0 mM. That is, a doxycycline concentration of 0.2 to 1.0 mM is required to obtain a 50% inhibition of collagen degradation. These estimated ranges were then used to predict the inhibitor concentrations tested in the quantitative analysis detailed below.

[2] = target: T3, Collagenase, purified from sodium hydroxide burned rabbit corneal tissue; assay: Quantitative fluorometric assay with fluorogenic Dnp-peptide substrate; assay type: biochemical; details: Dnp-substrate 20 uM, 37° C. for 2 to 3 minutes
Description: Quantitative determination of collagenase activity was carried out with a fluorogenic peptide substrate, Dnp-Pro-Leu-Gly-Leu-Trp-Ala-D-Arg-NH2,which collagenase cleaves to produce Dnp-Pro-Leu-Gly and Leu-Trp-Ala-D-Arg-NH2. The rate of production of the tetrapeptide was monitored with an AMINCO-BOWMAN® spectrofluorometer (excitation wavelength of 280 nm and emission wavelength of 346 nm). This test was repeated using high performance liquid chromatography (HPLC) to separate and detect the two cleaved collagenase products.
Reaction mixtures for both the fluorometric and HPLC assays contained 0.05M Tris-HCl, 0.2M NaCl, 10 mM CaCl2 and Dnp-substrate 20 uM, pH 7.7. The peptide of Example 2 was added to the assay mixtures at varying concentrations. The incubation conditions differed between the two assays; the fluorometric reaction mixtures were incubated at 37° C. for 2 to 3 minutes whereas the HPLC reaction mixtures were incubated at 37° C. for 3 hours. This was necessary because the HPLC assay was not as sensitive in detecting the substrate cleavage products as the fluorometric assay. IC50 values were interpolated from plots of log[Ao /Ai)-1[ vs. log[Inhibitor], where Ao is the activity observed in the absence of inhibitor and Ai is the activity observed in the presence of inhibitor at concentration i.

[3] = fast-eluting diastereomer (C18 reversed phase), approximate concentration giving 50% inhibition of collagen degradation, read-out: IC50 (uM) Fast Isomer
[4] = slow-eluting diastereomer (C18 reversed phase), approximate concentration giving 50% inhibition of collagen degradation, read-out: IC50 (uM) Slow Isomer
[5] = SDS-PAGE, visual estimate, Type I collagen 0.4 mg/ml, 3 hours at 30° C.
[6] = mixture containing approximately equal amounts of the two diastereomers, read-out: IC50 (uM), diastereomers not resolved

T1 sequence (P14756 198-498): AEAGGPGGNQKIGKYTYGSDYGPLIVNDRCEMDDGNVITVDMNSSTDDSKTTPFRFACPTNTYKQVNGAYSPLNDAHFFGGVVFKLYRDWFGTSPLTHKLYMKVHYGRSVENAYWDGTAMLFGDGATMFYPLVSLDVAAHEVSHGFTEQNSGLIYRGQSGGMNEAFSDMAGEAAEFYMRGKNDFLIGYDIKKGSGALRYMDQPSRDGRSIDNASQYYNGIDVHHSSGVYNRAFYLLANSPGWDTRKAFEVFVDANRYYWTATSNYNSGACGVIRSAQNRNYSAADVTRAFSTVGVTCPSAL

IC50 (pig synovial collagenase; [6]) [µM]	SMILES	IC50 (PA elastase) [µM]	Estimated IC50 Range [1, 5] [µM]	further results
	CN(C)c1ccc(O)c2c1C[C@H]1C[C@H]3[C@H](N(C)C)C(O)=C(C(N)=O)C(=O)[C@@]3(O)C(O)=C1C2=O [Minocycline, minocycline]	260		
	CC(C)CC(CS)C(=O)N[C@@H](Cc1ccccc1)C(=O)N[C@@H](C)C(N)=O (stereo partly drawn) [Compound 3, 2-[(R,S)-Mercaptomethyl]-4-methylpentanoyl-L-phenylalanyl-L-alanine amide]	0.3		IC50 (pig synovial collagenase; [3]): 0.3 µM; IC50 (pig synovial collagenase; [4]): 0.04 µM
	CN(C)[C@@H]1C(O)=C(C(N)=O)C(=O)[C@@]2(O)C(O)=C3C(=O)c4c(O)cccc4[C@@](C)(O)[C@H]3C[C@@H]12 [Tetracycline, tetracycline]	660	1000 to 2000	
	O=C([O-])CC(O)(CC(=O)[O-])C(=O)[O-].[Na+].[Na+].[Na+] [Sodium Citrate, sodium citrate]		10000 to 30000	reversal of inhibition by excess Ca++ ([1]; SDS-PAGE assay, footnote to Table II): Reversed by addition of excess Ca++; IC50 [2]: 45000 µM
0.05	CC(C)CC(CS)C(=O)N[C@@H](Cc1c[nH]c2ccccc12)C(=O)N[C@@H](C)C(N)=O (some centres unmarked) [Compound 4, HSCH2 CH[CH2 CH(CH3)2]COTrpAlaNH2]			
4	CCOC(=O)[C@H](C)NC(=O)[C@H](CCCCNC(=O)OC(C)(C)C)NC(=O)C(CS)CC(C)C (some centres unmarked)			
	CC(=O)N[C@@H](CS)C(=O)O [Acetylcysteine, acetylcysteine]		10000 to 30000	
	CC(C)CC(CS)C(=O)N[C@@H](Cc1ccccc1)C(=O)N[C@@H](CC(C)C)C(N)=O (stereo partly drawn) [Compound 5, 2-[(R,S)-Mercaptomethyl]-4-methylpentanoyl-L-phenylalanyl-L-leucine amide]			IC50 (pig synovial collagenase; [3]): 10 µM; IC50 (pig synovial collagenase; [4]): 4 µM
	O=C1O[C@H]([C@@H](O)CO)C([O-])=C1O.[Na+] [Sodium Ascorbate]			Estimated IC50 Range (mM) [1, 5]: No Inhibition
0.03	CC(C)CC(CS)C(=O)N[C@@H](Cc1ccc2ccccc2c1)C(=O)N[C@@H](C)C(N)=O (some centres unmarked) [Compound 7, HSCH2 CH[CH2 CH(CH3)2]CCNalAlaNH2]			
2	CC(C)CC(CS)C(=O)N[C@@H](Cc1ccccc1)C(=O)N[C@@H](Cc1ccccc1)C(N)=O (some centres unmarked) [Compound 6, HSCH2 CH[CH2 CH(CH3)2]COPhePheNH2]			
	C[C@H]1c2cccc(O)c2C(=O)C2=C(O)[C@]3(O)C(=O)C(C(N)=O)=C(O)[C@@H](N(C)C)[C@@H]3[C@@H](O)[C@@H]21 [Doxycycline, doxycycline]	110	200 to 1000	
	N[C@@H](CS)C(=O)O [Cysteine, cysteine]		3000 to 10000	
